In the NIST ThermoML archive (doi:10.1021/je049591p):
Numbers after ± are expanded uncertainties.

Experiments:
[1] = xn = mol fraction of the nth substance listed; conditions: Ring tensiometer
[2] = for surface tension liquid-gas: Ring tensiometer; for mass density: 101.33 kPa, Liquid

OCc1ccccc1 [benzenemethanol] + OCCO
surface tension liquid-gas [mN/m], [1]
Conditions | 293.15 K | 298.15 K | 303.15 K | 308.15 K | 313.15 K | 318.15 K | 323.15 K
x1 = 0.0319 | 47.78 ± 0.83 | 47.35 ± 0.82 | 46.92 ± 0.81 | 46.54 ± 0.81 | 46.14 ± 0.8 | 45.71 ± 0.79 | 45.26 ± 0.79
x1 = 0.0535 | 47.45 ± 0.82 | 47.01 ± 0.81 | 46.53 ± 0.81 | 46.07 ± 0.8 | 45.66 ± 0.79 | 45.24 ± 0.79 | 44.79 ± 0.78
x1 = 0.0727 | 47.13 ± 0.82 | 46.67 ± 0.81 | 46.15 ± 0.8 | 45.72 ± 0.8 | 45.26 ± 0.79 | 44.86 ± 0.78 | 44.32 ± 0.77
x1 = 0.0854 | 46.69 ± 0.81 | 46.19 ± 0.8 | 45.76 ± 0.8 | 45.31 ± 0.79 | 44.85 ± 0.78 | 44.41 ± 0.78 | 43.91 ± 0.77
x1 = 0.1118 | 45.87 ± 0.8 | 45.43 ± 0.79 | 44.9 ± 0.78 | 44.46 ± 0.78 | 44.04 ± 0.77 | 43.53 ± 0.76 | 43.06 ± 0.76
x1 = 0.206 | 44.07 ± 0.77 | 43.61 ± 0.77 | 43.08 ± 0.76 | 42.6 ± 0.75 | 42.12 ± 0.74 | 41.67 ± 0.74 | 41.16 ± 0.73
x1 = 0.2633 | 42.87 ± 0.76 | 42.42 ± 0.75 | 41.87 ± 0.74 | 41.39 ± 0.73 | 40.84 ± 0.72 | 40.4 ± 0.72 | 39.9 ± 0.71
x1 = 0.3883 | 41.53 ± 0.74 | 41.07 ± 0.73 | 40.61 ± 0.72 | 40.14 ± 0.72 | 39.7 ± 0.71 | 39.24 ± 0.7 | 38.76 ± 0.69
x1 = 0.5596 | 40.58 ± 0.73 | 40.18 ± 0.72 | 39.68 ± 0.71 | 39.24 ± 0.71 | 38.77 ± 0.7 | 38.27 ± 0.69 | 37.79 ± 0.68
x1 = 0.7394 | 39.44 ± 0.71 | 38.95 ± 0.71 | 38.45 ± 0.7 | 37.94 ± 0.69 | 37.51 ± 0.68 | 36.99 ± 0.67 | 36.53 ± 0.67
x1 = 0.9101 | 39.28 ± 0.71 | 38.79 ± 0.71 | 38.3 ± 0.7 | 37.79 ± 0.69 | 37.35 ± 0.68 | 36.84 ± 0.68 | 36.38 ± 0.67
x1 = 1 | 39.05 ± 0.71 | 38.58 ± 0.71 | 38.12 ± 0.7 | 37.63 ± 0.69 | 37.16 ± 0.68 | 36.63 ± 0.68 | 36.18 ± 0.67

OCCO [1,2-ethanediol]
[2]
Conditions | mass density [kg/m3] | surface tension liquid-gas [mN/m]
293.15 K | 1113.34 ± 1 | 48.42 ± 0.84
298.15 K | – | 48.03 ± 0.83
303.15 K | 1106.36 ± 0.93 | 47.57 ± 0.82
308.15 K | – | 47.2 ± 0.82
313.15 K | 1098.39 ± 0.84 | 46.78 ± 0.81
318.15 K | – | 46.42 ± 0.8
323.15 K | 1091.05 ± 0.77 | 46.02 ± 0.8

OCc1ccccc1 [benzenemethanol]
[2]
Conditions | mass density [kg/m3] | surface tension liquid-gas [mN/m]
293.15 K | 1045.2 ± 1 | 39.05 ± 0.71
298.15 K | 1041.4 ± 1 | 38.58 ± 0.71
303.15 K | 1037.5 ± 0.9 | 38.12 ± 0.7
308.15 K | 1033.6 ± 0.9 | 37.63 ± 0.69
313.15 K | 1029.8 ± 0.8 | 37.16 ± 0.68
318.15 K | 1025.8 ± 0.8 | 36.63 ± 0.68
323.15 K | 1021.9 ± 0.8 | 36.18 ± 0.67

OCCO [1,2-ethanediol] + OCc1ccccc1
[1], x2 = 0
Conditions | surface tension liquid-gas [mN/m]
293.15 K | 48.42 ± 0.84
298.15 K | 48.03 ± 0.83
303.15 K | 47.57 ± 0.82
308.15 K | 47.2 ± 0.82
313.15 K | 46.78 ± 0.81
318.15 K | 46.42 ± 0.8
323.15 K | 46.02 ± 0.8
